Laboratory results from ChEMBL document CHEMBL2434968, “The thermodynamic basis for the use of lipophilic efficiency (LipE) in enthalpic optimizations” (Bioorg Med Chem Lett, 2013).
pKd: −log10 of the molar value.

Columns and labels:
Protease = Protease (Human immunodeficiency virus 1, UniProt Q9YQ12); test: Binding affinity to HIV1 protease by ITC analysis
Cathepsin D = Cathepsin D (Homo sapiens, UniProt P07339); test: Inhibition of cathepsin D (unknown origin)
[1] = Inhibition of pepsin (unknown origin); parameters: species or system Homo sapiens

Sequence of Protease (Q9YQ12 whole entry): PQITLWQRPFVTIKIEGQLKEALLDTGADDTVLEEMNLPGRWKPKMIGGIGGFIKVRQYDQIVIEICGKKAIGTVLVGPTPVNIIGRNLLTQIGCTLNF
Sequence of Cathepsin D (P07339 65-162 limits assumed): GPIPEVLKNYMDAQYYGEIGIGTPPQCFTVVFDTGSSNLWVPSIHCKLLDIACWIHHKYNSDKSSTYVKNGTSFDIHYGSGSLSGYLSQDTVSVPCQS
Sequence of Cathepsin D (P07339 169-412 limits assumed): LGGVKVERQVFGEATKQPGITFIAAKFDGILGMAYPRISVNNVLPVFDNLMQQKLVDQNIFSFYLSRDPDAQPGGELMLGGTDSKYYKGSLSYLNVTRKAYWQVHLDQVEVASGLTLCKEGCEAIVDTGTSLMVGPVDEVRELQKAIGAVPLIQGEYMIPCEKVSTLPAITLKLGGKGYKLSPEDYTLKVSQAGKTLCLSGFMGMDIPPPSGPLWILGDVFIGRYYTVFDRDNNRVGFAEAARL

pKd (Protease)	pKd (Cathepsin D)	pKd [1]	Structure (SMILES)
10.89	–	–	CSC[C@H](NC(=O)COc1cccc2cnccc12)C(=O)N[C@@H](Cc1ccccc1)[C@H](O)C(=O)N1CSC(C)(C)C1C(=O)N[C@H]1c2ccccc2C[C@H]1O (stereo partly drawn)
7.93	6.85	6.07	CC1(C)SCN(C(=O)[C@@H](O)[C@H](Cc2ccccc2)NC(=O)COc2ccccc2)C1C(=O)N[C@H]1c2ccccc2C[C@H]1O (stereo partly drawn)
9.85	7.66	6.46	Cc1cccc(C)c1OCC(=O)N[C@@H](Cc1ccccc1)[C@H](O)C(=O)N1CSC(C)(C)C1C(=O)N[C@H]1c2ccccc2C[C@H]1O (stereo partly drawn)
10.68	–	–	CC1(C)SCN(C(=O)[C@@H](O)[C@H](Cc2ccccc2)NC(=O)[C@H](CS(C)(=O)=O)NC(=O)COc2cccc3cnccc23)C1C(=O)N[C@H]1c2ccccc2C[C@H]1O (stereo partly drawn)
